We go through 14 compounds from patent US20230212202A1, “TREATMENT OF MGMT DEFICIENT CANCER WITH 2-FLUOROETHYL-SUBSTITUTED NITROSOUREAS AND OTHER COMPOUNDS” (YALE UNIVERSITY, priority 2021, published 2023).

Molecules are shown by their SMILES. Values joined by “and” are separate entries in the source; they are usually repeats but may differ in a detail not shown here. Identical values can stand only once. Like-named read-outs stand apart in the source and are kept apart here.

The subject of data set [1] is LN229 human brain glioblastoma cells MGMT- MMR+. In words: Anticancer activity towards LN229 cells (Example 15). It counts as cell-based. As to conditions: read-out: MGMT -MMR + Activity. As for the experimental part: (§1) LN229 quad cells were maintained in Dulbecco’s Modified Eagle Medium (DMEM) supplemented with 10% fetal bovine serum. Cells were plated into sterile black with glass bottom 384-well plates (Cellvis) at a concentration of 1,000 cells/well (20 µL total volume) using a MultiDrop (Thermo Fisher). Then, assay plates were centrifuged at 300 rpm for 2 seconds and incubated overnight in a 37° C. 5% CO2 incubator. Compounds were prepared as 100 mM stocks in DMSO and stored protected from light at -20′C until use. Prior to compound addition, the stock solutions of compound were diluted two-fold serially in DMSO from 100 mM down to 0.05 mM in a 384-well Source plate. Vehicle control wells containing DMSO and positive control wells containing 10 mM bortezomib were also added to the Source plate. An aliquot in the amount of 40 nL of compound stock solution or DMSO vehicle was transferred from the source plate to the cell assay plate using an Echo Acoustic dispense (Beckman). Three replicate dilution curves of each compound were run on each assay plate. An aliquot in the amount of 120 nL of a 10 mM bortezomib solution was transferred to the positive control wells resulting in a final concentration of 60 µM. The final concentration of compounds ranged from 200 µM to 0.1 µM (12-point, 2-fold dilution dose response curve), and the final DMSO concentration was 0.2%.
(§2) Assay plates were centrifuged at 500 rpm for 2 seconds and incubated for 120 hours at 37° C. in a humidified 5% CO2 incubator. Following incubation, cells were fixed with 4% paraformaldehyde and stained with DAPI for nuclei visualization. The images were acquired on the InCell 2200 high content imager (GE, now […]), and quantified using InCell Analyzer image analysis software. Z prime factor, signal-to-background and coefficient of variation were calculated for each assays plate using mean and standard deviation values of the negative (vehicle) and positive (bortezomib) control wells to ensure assay robustness. Raw cell count data for test compounds was normalized to percent viability relative to the DMSO vehicle control. Data was plotted in GraphPad Prism using a variable slope 4-parameter fit.

Data set [2] has as its system LN229 human brain glioblastoma cells MGMT+ MMR-. The description is as above. The class given is cell-based. Conditions: read-out: MGMT+ MMR -Activity. As for the experimental part:
as §1, §2

Data set [3] relates to LN229 human brain glioblastoma cells MGMT+ MMR+. The data set is described as above. The class given is cell-based. Conditions: read-out: MGMT+ MMR+ Activity. As for the experimental part:
as §1, §2

Data set [4] has as its system LN229 human brain glioblastoma cells MGMT- MMR-. Described as above. It counts as cell-based. Conditions: read-out: MGMT -MMR-Activity. How it is done:
as §1, §2

Data set [5] concerns LN229 MGMT-/MMR- cells. In words: Short-term cell viability assay. The class given is cell-based, human. Conditions: LN229 MGMT-/MMR- cells.
Data set [6] concerns LN229 MGMT+/-, MMR+/- cells. In words: Short-term cell viability assay, four isogenic LN229 glioblastoma cell lines. It counts as cell-based, human.
The conditions of data set [7]: 37° C., pH 7.4; cited from earlier work.
Data set [8] has as its system LN229 MGMT+/-, MMR+/- cells. In words: Clonogenic survival assay. The class given is cell-based, human. How it is done:
Clonogenic Cell Survival Assay. Cells were trypsinized, washed, counted, and diluted in a medium containing various concentrations of drug. They were then immediately seeded in six-well plates in triplicate at three-fold dilutions, ranging from 9000 to 37 cells per well. Depending on colony size, these plates were kept in the incubator for 10 to 14 days. After incubation, colonies were washed in phosphate-buffered saline (PBS), stained with crystal violet, counted, and quantified.

For the next data set, the system named is LN229 MGMT-/MMR+ cells. In words: IR alkaline comet assay. It counts as cell-based, human.
The subject of data set [9] is DLD1 BRCA2+/- and BRCA2-/- cells. The data set is described as follows: Short-term viability assay with or without O6BG. The class given is cell-based, human. As to conditions: for sensitivity of BRCA2-/- cells: DLD1, ±O6BG; for therapeutic index (TI), ratio of IC50 values in MGMT+/BRCA2+ cells compared to MGMT-/BRCA2- cells: DLD1 isogenic model.
Data set [10] relates to PEO4 (BRCA2+) and PEO1 (BRCA2-/-) cells. The data set is described as follows: Short-term viability assay with or without O6BG. It counts as cell-based, human. Conditions: for therapeutic index (TI): PEO1/4 model; for sensitivity of BRCA2-/- cells: PEO1/PEO4, ±O6BG.
Data set [11] has as its system PD20 cells, FANCD2-/- or +FANCD2. The data set is described as follows: Short-term viability assay. It counts as cell-based, human. Conditions: PD20 FANCD2-/- vs +FANCD2.
Data set [12] relates to linearized pUC19 plasmid DNA. In words: Melting temperature assay. It counts as biochemical. Conditions: 100 or 500 µM, 3 h.
Data set [13] has as its system LN229 MGMT-/MMR- cells. The data set is described as follows: IR alkaline comet assay. The class given is cell-based, human. As to conditions: 200 µM, 2-24 h.
For data set [14], the system named is HCT116 MLH1-/- cells or HCT116 +Chr3 cells. In words: Short-term viability assay with or without O6BG. The class given is cell-based, human. From the text:
(§3) Short-term Cell Viability Assay.

The test system of data set [15] is DLD1 MSH6-deficient cells. In words: Short-term viability assay with or without O6BG. It counts as cell-based, human. As to conditions: with or without O6BG-induced MGMT depletion.
Source text: as §3

The subject of data set [16] is LN229 MGMT-/MMR- flank tumors. The data set is described as follows: Xenograft flank tumor model. Conditions: 5 mg/kg MWF × 3 weeks. It counts as in vivo, mouse.
Setting [17] is: Homo sapiens, LN-229, 120 hours.

For the compound `O=NN(CCF)C(=O)NCCCl`, the IC50 in data set [1] (Homo sapiens, LN-229, 120 h) was 50 to 90 µM; in data set [2] (Homo sapiens, LN-229, 120 h), more than 90 µM; in data set [3] (Homo sapiens, LN-229, 120 h) it was more than 90 µM; in [4] (Homo sapiens, LN-229, 120 h) it was less than 50 µM.
On to `O=NN(CCF)C(=O)NC1CCCCC1`, for which the IC50 was less than 50 µM in data set [1] (setting [17]), 50 to 90 µM in data set [2] (setting [17]), more than 90 µM in [3] (setting [17]) and less than 50 µM in [4] (setting [17]).
On to `CCOP(=O)(OCC)C(C)NC(=O)N(CCF)N=O` (centres unmarked), for which the IC50 was more than 90 µM in data set [1] (120 hours), more than 90 µM in data set [2] (120 hours), more than 90 µM in [3] (120 hours) and less than 50 µM in data set [4] (120 hours).
Turning to `Cc1ncc(CNC(=O)N(CCF)N=O)c(N)n1`, the IC50 was more than 90 µM in data set [1] (setting [17]); more than 90 µM in data set [2] (setting [17]); more than 90 µM in data set [3] (setting [17]); less than 50 µM in data set [4] (Homo sapiens, LN-229, 120 h).
Consider `CC(F)CN/N=N/c1[nH]cnc1C(N)=O` (centres unmarked) [Compound 10], for which the “potency in MGMT-/MMR- cells” value with LN229 MGMT-/MMR- cells [5] is “reduced potency”.
`NC(=O)c1nc[nH]c1/N=N/NCCCF` [Compound 11]: the “activity in the four LN229 cell lines” value in [6] (MGMT+/-, MMR+/-) is given as “low activity in all four cell lines”.
With `Nc1nc(OCCF)c2ncn([C@@H]3O[C@H](CO)[C@@H](O)[C@H]3O)c2n1` [Compound S1, O^6-(2-fluoroethyl)guanosine], the half-life of hydrolysis in data set [7] is 18.5 h and ~ 18.5 h.
Take `Nc1nc(OCCCl)c2ncn([C@@H]3O[C@H](CO)[C@@H](O)[C@H]3O)c2n1` [Compound S4, O^6-(2-chloroethyl)guanosine]: the half-life of hydrolysis in data set [7] is given as ~ 18 min.
Turning to `O=NN(CCCl)C(=O)NC1CCCCC1` [Lomustine, lomustine, reference compound], the “clonogenic survival, MGMT+ cells” value in data set [8] (LN229 MGMT+ cells) is “cytotoxic to MGMT+ cells”. The “clonogenic survival, MGMT- cells” value in [8] (LN229 MGMT- cells, MMR+/-) is recorded as “effective in MMR- cells”.
As to `CO[C@@]12[C@H](COC(N)=O)C3=C(C(=O)C(C)=C(N)C3=O)N1C[C@@H]1N[C@@H]12` [MMC, Mitomycin C], the “IR-induced comet tail (ICL detection)” value in the data set with LN229 MGMT-/MMR+ cells (0.1 µM, 24 h) was “partial reduction in the IR-induced comet tail”; with LN229 MGMT-/MMR+ cells (50 µM, 2 h) it was “completely abolished the IR-induced comet tail”. Moreover, in the data set on LN229 MGMT-/MMR+ cells (TMZ, KL-50 200 µM, MMC 0.1 or 50 µM), the “comet tailing in the absence of IR” value is on record as “did not”. Besides, the “sensitivity of BRCA2-/- cells” value in data set [9] is “hypersensitivity of DLD1 BRCA2-/- cells to crosslinking agents independent of MGMT depletion”; in [10], “hypersensitivity of PEO4 BRCA2-/-cells to crosslinking agents independent of MGMT depletion”. In addition, the “therapeutic index (TI), ratio of IC50 values in MGMT+/BRCA2+ cells compared to MGMT-/BRCA2- cells” value in data set [9] is given as 26 fold. Further, in data set [10], the “therapeutic index (TI)” value was determined as 7 fold. For the same compound, the “sensitivity of FANCD2-deficient cells” value in [11] is listed as “hypersensitivity to crosslinking agents in FANCD2-/-cells”.
For the compound `COS(C)(=O)=O` [MMS, Methylmethane sulfonate, reference compound], the DNA melting temperature result in data set [12] was “comparable changes in measured DNA melting temperature”.
Regarding `NC(=O)c1ncn2c(=O)n(CCCl)nnc12` [MTZ, mitozolomide, reference compound], the “selectivity for MGMT-deficient cells” value in [6] (LN229, listed as 12a) is ~ 7 fold. Further, the “DNA damage in unirradiated samples, time course” value in the data set on LN229 MGMT-/MMR- cells [13] (0 Gy) is “maximal damage at 2 h”. The “DNA mobility after IR, time course” value with LN229 MGMT-/MMR- cells [13] (10 Gy) is “reduced DNA mobility within 2 h”.
For `Cn1nnc2c(C(N)=O)ncn2c1=O` [TMZ, temozolomide, reference compound], the “activity in HCT116 cells” value in data set [14] was “inactive”. Besides, in data set [15], the “activity in DLD1 cells” value is “inactive”. Moreover, the IC50 in the data set on LN229 MGMT-/MMR- cells [5] (Homo sapiens, LN-229, read-out: IC50) turned out to be 838 µM. Moreover, the tumor growth entry in [16] (P.O.) is given as “no efficacy”. The “median OS” value in data set [16] (Kaplan-Meier) came to 10 weeks.
Turning to `N.N.[Cl][Pt][Cl]` [cisplatin], in [9], the “sensitivity of BRCA2-/- cells” value is reported as “hypersensitivity of DLD1 BRCA2-/- cells to crosslinking agents independent of MGMT depletion” and the “therapeutic index (TI), ratio of IC50 values in MGMT+/BRCA2+ cells compared to MGMT-/BRCA2- cells” value was 42 fold. In data set [10], the “therapeutic index (TI)” value is listed as 13 fold and the “sensitivity of BRCA2-/- cells” value is given as “hypersensitivity of PEO4 BRCA2-/-cells to crosslinking agents independent of MGMT depletion”. For the same compound, in data set [11], the “sensitivity of FANCD2-deficient cells” value is “hypersensitivity to crosslinking agents in FANCD2-/-cells”.
